In PMC12040969, “Design, synthesis, in silico studies, and apoptotic antiproliferative activity of novel thiazole-2-acetamide derivatives as tubulin polymerization inhibitors” (Frontiers in Chemistry, 2025):
“And” between values parts separate entries of the source, which are not always exact repeats. Identical values can stand only once.

Key:
[1] = Cell viability assay (MTT), normal cells; type: cell-based; settings: human, MCF-10A normal mammary gland epithelial cells, four-day incubation
[2] = system: Caspase-3 in MDAMB-231 cancer cell line; assay: Caspase-3 activation assay; type: cell-based, human; settings: MDAMB-231 cells; for Caspase-3 Fold change: relative to untreated control
Source text: (§1) […]. Supplementary Appendix A provides more information.

[3] = system: Caspase-9 in MDAMB-231 cancer cell line; assay: Caspase-9 activation assay; type: cell-based, human; settings: MDAMB-231 cells
Procedure: […]. Compound 10o was the least efficient derivative as caspase-9 activators (0.90 ng/mL).
as §1

[4] = system: Bcl-2 in MDAMB-231 cancer cell line; assay: Bcl-2 level assay; type: cell-based, human; settings: MDAMB-231 cells
Source text: as §1

colon - HCT-116 = assay: Antiproliferative assay (MTT) HCT-116
- MDAMB-231 = assay: Antiproliferative assay (MTT) MDAMB-231
pancreatic - MDAMB-231 = assay: Antiproliferative assay (MTT) MDAMB-231; settings: read-out: Antiproliferative activity IC50 ± SEM (µM) MDAMB-231; MDAMB-231, MTT
prostatic - PC-3 = assay: Antiproliferative assay (MTT) PC-3
breast - MCF-7 = assay: Antiproliferative assay (MTT) MCF-7
[5] = system: Bax in MDAMB-231 cancer cell line; assay: Bax level assay; type: cell-based, human; settings: MDAMB-231 cells
Source text: as §1

[6] = system: four human cancer cell lines (HCT-116, PC-3, MCF-7, MDAMB-231); assay: Antiproliferative assay, mean of four cell lines (GI50); settings: Homo sapiens, read-out: GI50 (average IC50)
tubulin = assay: Tubulin polymerization inhibition assay (Cytoskeleton kit);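 on all read-outs here: Cell-free tubulin polymerization read by fluorescent reporter enhancement over a 30 min reaction, with the compound-free kit control taken as 100% activity and inhibition relative to it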; settings: for Tub. enzyme inhibition assay %inhibition: 30 min, codes 522-537 run; for Tub. enzyme inhibition assay K. Activity: control = 120, codes 522-537 run

SMILES: Cc1ccc(/C=C/C(=O)c2sc(SCC(=O)Nc3nccs3)nc2C)cc1 [Compound 13d, (E)-2-((4-methyl-5-(3-(p-tolyl)acryloyl)thiazol-2-yl)thio)-N-(thiazol-2-yl)acetamide]
- viability at 96 h, 50 µM [1]: 90%
- Caspase-3 Conc [2]: 690 ± 5 pg/mL
- Caspase-3 Fold change [2]: 11 fold
- Caspase-3 Fold change ([2]; listed as 13g): ~10 fold
- Caspase-9 Conc [3]: 1.50 ng/mL and 1.50 ± 0.10 ng/mL
- Caspase-9 Fold change ([3]; relative to untreated control): 15 fold
- Bcl-2 Conc [4]: 0.80 ng/mL
- Bcl-2 Fold reduction ([4]; relative to untreated control): 6 fold
- Average of Relative viability of cells (%) (colon - HCT-116; HCT-116, 1.56 µM): 90.6%
- Average of Relative viability of cells (%) (colon - HCT-116; HCT-116, 3.125 µM): 69.8%
- Average of Relative viability of cells (%) (colon - HCT-116; HCT-116, 6.25 µM): 63.9%
- Average of Relative viability of cells (%) (colon - HCT-116; HCT-116, 12.5 µM): 32.7%
- Average of Relative viability of cells (%) (colon - HCT-116; HCT-116, 25 µM): 26.5%
- Average of Relative viability of cells (%) (colon - HCT-116; HCT-116, 50 µM): 17.4%
- Average of Relative viability of cells (%) (colon - HCT-116; HCT-116, 100 µM): 9.2%
- IC50 (colon - HCT-116; read-out: Antiproliferative activity IC50 ± SEM (µM) HCT-116, HCT-116, MTT): 9 ± 0.9 µM
- Average of Relative viability of cells (%) (- MDAMB-231; MDAMB-231, 1.56 µM): 71.2%
- Average of Relative viability of cells (%) (- MDAMB-231; MDAMB-231, 3.125 µM): 57.9%
- Average of Relative viability of cells (%) (- MDAMB-231; MDAMB-231, 6.25 µM): 45.6%
- Average of Relative viability of cells (%) (- MDAMB-231; MDAMB-231, 12.5 µM): 35.2%
- Average of Relative viability of cells (%) (- MDAMB-231; MDAMB-231, 25 µM): 15.6%
- Average of Relative viability of cells (%) (- MDAMB-231; MDAMB-231, 50 µM): 11.3%
- Average of Relative viability of cells (%) (- MDAMB-231; MDAMB-231, 100 µM): 7.5%
- IC50 (pancreatic - MDAMB-231): 5 ± 0.3 µM
- Average of Relative viability of cells (%) (prostatic - PC-3; PC-3, 1.56 µM): 97.1%
- Average of Relative viability of cells (%) (prostatic - PC-3; PC-3, 3.125 µM): 83.3%
- Average of Relative viability of cells (%) (prostatic - PC-3; PC-3, 6.25 µM): 57.8%
- Average of Relative viability of cells (%) (prostatic - PC-3; PC-3, 12.5 µM): 35.6%
- Average of Relative viability of cells (%) (prostatic - PC-3; PC-3, 25 µM): 20.5%
- Average of Relative viability of cells (%) (prostatic - PC-3; PC-3, 50 µM): 19.4%
- Average of Relative viability of cells (%) (prostatic - PC-3; PC-3, 100 µM): 7.6%
- IC50 (prostatic - PC-3; read-out: Antiproliferative activity IC50 ± SEM (µM) PC-3, PC-3, MTT): 9 ± 0.8 µM
- Average of Relative viability of cells (%) (breast - MCF-7; MCF-7, 1.56 µM): 88.6%
- Average of Relative viability of cells (%) (breast - MCF-7; MCF-7, 3.125 µM): 71.2%
- Average of Relative viability of cells (%) (breast - MCF-7; MCF-7, 6.25 µM): 45.2%
- Average of Relative viability of cells (%) (breast - MCF-7; MCF-7, 12.5 µM): 32.4%
- Average of Relative viability of cells (%) (breast - MCF-7; MCF-7, 25 µM): 24.5%
- Average of Relative viability of cells (%) (breast - MCF-7; MCF-7, 50 µM): 17.1%
- Average of Relative viability of cells (%) (breast - MCF-7; MCF-7, 100 µM): 8.3%
- IC50 (breast - MCF-7; read-out: Antiproliferative activity IC50 ± SEM (µM) MCF-7, MCF-7, MTT): 7 ± 0.4 µM
- Bax Conc [5]: 320 pg/mL and 320 ± 8 pg/mL
- Bax Fold change ([5]; relative to untreated control): 40 fold
- IC50 [6]: 8 µM
- Tub. enzyme inhibition assay %inhibition (tubulin; conc 0.01 (unit not given)): 6.76%
- Tub. enzyme inhibition assay K. Activity (tubulin; conc 0.01 (unit not given)): 111.89
- Tub. enzyme inhibition assay %inhibition (tubulin; conc 0.1 (unit not given)): 21%
- Tub. enzyme inhibition assay K. Activity (tubulin; conc 0.1 (unit not given)): 94.779
- Tub. enzyme inhibition assay %inhibition (tubulin; conc 1 (unit not given)): 47.4%
- Tub. enzyme inhibition assay K. Activity (tubulin; conc 1 (unit not given)): 63.07
- Tub. enzyme inhibition assay %inhibition (tubulin; conc 10 (unit not given)): 68.5%
- Tub. enzyme inhibition assay K. Activity (tubulin; conc 10 (unit not given)): 37.815
- Tub. enzyme inhibition assay %inhibition (tubulin; conc 100 (unit not given)): 87%
- Tub. enzyme inhibition assay K. Activity (tubulin; conc 100 (unit not given)): 15.546
- IC50 (tubulin; read-out: Tubulin inhibition IC50 ± SEM, triplicate for each tested concentration): 3.68 ± 0.14 µM
- Tub. (IC50) IC50±SD (tubulin; supplement raw data, lab codes): 1.53 ± 0.06 µg/mL
